Laboratory results taken from the supplement of paper PMC10307832.

Legend:
Dactolisib + Foretinib = compound: Cn1c(=O)n(-c2ccc(C(C)(C)C#N)cc2)c2c3cc(-c4cnc5ccccc5c4)ccc3ncc21 [Dactolisib] + COc1cc2c(Oc3ccc(NC(=O)C4(C(=O)Nc5ccc(F)cc5)CC4)cc3F)ccnc2cc1OCCCN1CCOCC1 [Foretinib] (partner 0.25 µM); assay: relative viability (nuclei count vs DMSO), 5 days (fraction); higher = more cells survive
Summary of the method: (§1)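 Relative viability equals treated-well nuclei counts divided by vehicle-well nuclei counts. Counts came from 4× images of lung cancer cell lines grown in 1536-well plates for 5 days after pin-tool dosing on the day after seeding. Dosing used one drug alone or a fixed anchor-drug dose plus five library-drug doses (not always all listed) in √10 steps, and values are medians of duplicate plates.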

AZ505 + Navitoclax = compound: C1CCC(CC1)N(CCNCCC2=C3C(=C(C=C2)O)NC(=O)CO3)C(=O)CCNCCC4=CC(=C(C=C4)Cl)Cl [AZ505] + CC1(C)CCC(c2ccc(Cl)cc2)=C(CN2CCN(c3ccc(C(=O)NS(=O)(=O)c4ccc(N[C@H](CCN5CCOCC5)CSc5ccccc5)c(S(=O)(=O)C(F)(F)F)c4)cc3)CC2)C1 [Navitoclax] (partner 0.5 µM); assay: as above
Summary of the method: as §1

| Cell Line | relative viability (Dactolisib + Foretinib; first compound 0.002 µM) | relative viability (Dactolisib + Foretinib; first compound 0.006325 µM) | relative viability (Dactolisib + Foretinib; first compound 0.02 µM) | relative viability (Dactolisib + Foretinib; first compound 0.06325 µM) | relative viability (Dactolisib + Foretinib; first compound 0.2 µM) | relative viability (AZ505 + Navitoclax; first compound 0.08 µM) | relative viability (AZ505 + Navitoclax; first compound 0.253 µM) | relative viability (AZ505 + Navitoclax; first compound 0.8 µM) | relative viability (AZ505 + Navitoclax; first compound 2.53 µM) | relative viability (AZ505 + Navitoclax; first compound 8 µM) |
| --- | --- | --- | --- | --- | --- | --- | --- | --- | --- | --- |
| SK-MES-1 | 1.04 | 0.818 | 0.906 | 0.571 | 0.397 | 1.13 | 1.19 | 1.29 | 1.14 | 1.31 |
| SK-LU-1 | 0.806 | 0.713 | 0.575 | 0.382 | 0.245 | 0.716 | 0.406 | 0.451 | 0.482 | 0.351 |
| HCC-366 | 0.914 | 0.986 | 0.955 | 0.94 | 0.368 | 1.03 | 0.948 | 1.02 | 1.12 | 1.06 |
| 201T | 0.916 | 1.11 | 1.06 | 0.636 | 0.491 | 1.19 | 1.24 | 1.17 | 1.18 | 1.19 |
| HCC-827 | 0.995 | 1.04 | 0.913 | 0.815 | 0.283 | 1.03 | 0.966 | 0.967 | 0.963 | 0.98 |
| NCI-H647 | 1.15 | 1.18 | 1.16 | 0.211 | 0.395 | 1.02 | 1.22 | 1.14 | 0.97 | 1.32 |
| NCI-H2023 | – | 0.672 | 0.491 | 0.343 | 0.153 | 0.958 | 0.945 | 0.997 | 1.2 | 0.959 |
| NCI-H520 | 0.736 | 0.507 | 0.464 | 0.278 | 0.198 | 1.05 | 1.23 | 1.12 | 1.22 | 1.07 |
| RERF-LC-KJ | 0.852 | 0.826 | 0.87 | 0.527 | 0.399 | 1.3 | 0.901 | 0.916 | 0.869 | 0.753 |
| A-427 | 1.2 | 1.05 | 0.873 | 0.56 | 0.46 | 0.967 | 0.942 | 0.919 | 0.949 | 0.802 |
| NCI-H441 | 1.14 | 1.04 | 0.961 | 0.432 | 0.382 | 0.691 | 0.682 | 0.545 | 0.716 | 0.505 |
| NCI-H1703 | – | 0.389 | 0.381 | 0.281 | 0.325 | 1.05 | 1.36 | 1.32 | 1.31 | 1.55 |
| NCI-H1792 | – | – | – | – | – | 0.61 | 0.637 | 0.592 | 0.653 | 0.719 |
| Calu-6 | 0.826 | 0.915 | 0.879 | 0.531 | 0.543 | 0.778 | 0.818 | 0.799 | 0.897 | 0.937 |
| SW 1573 | 0.996 | 0.964 | 0.875 | 0.34 | 0.371 | 0.893 | 1.03 | 1.05 | 1.09 | 0.91 |
| PC-3 [JPC-3] | 1.13 | 1.06 | 1.03 | 0.816 | 0.565 | 0.76 | 0.817 | 0.768 | 0.84 | 0.802 |
| EMC-BAC-2 | 1.04 | 0.976 | 0.984 | 0.501 | 0.484 | 1.12 | 1.26 | 1.15 | 1.14 | 1.27 |

| Cell Line | relative viability (Dactolisib + Foretinib; first compound 0.002 µM) | relative viability (Dactolisib + Foretinib; first compound 0.006325 µM) | relative viability (Dactolisib + Foretinib; first compound 0.02 µM) | relative viability (Dactolisib + Foretinib; first compound 0.06325 µM) | relative viability (Dactolisib + Foretinib; first compound 0.2 µM) | relative viability (AZ505 + Navitoclax; first compound 0.08 µM) | relative viability (AZ505 + Navitoclax; first compound 0.253 µM) | relative viability (AZ505 + Navitoclax; first compound 0.8 µM) | relative viability (AZ505 + Navitoclax; first compound 2.53 µM) | relative viability (AZ505 + Navitoclax; first compound 8 µM) |
| --- | --- | --- | --- | --- | --- | --- | --- | --- | --- | --- |
| LK-2 | 1.19 | 0.997 | 0.766 | 0.444 | 0.196 | 0.825 | 0.952 | 0.805 | 0.934 | 0.842 |
| NCI-H2126 | 1.32 | 1.24 | 1.08 | 0.653 | 0.498 | 0.818 | 0.88 | 0.83 | 0.857 | 0.863 |
| NCI-H3122 | 0.932 | 0.934 | 1.05 | 1.03 | 0.855 | 1 | 1.02 | 1.03 | 1.02 | 1 |
| NCI-H1975 | 1.06 | 0.897 | 0.715 | 0.454 | 0.334 | 1.02 | 0.99 | 1.05 | 1.03 | 1.13 |
| NCI-H1944 | 1.13 | 0.914 | 0.852 | 0.425 | 0.392 | 1.03 | 1.03 | 1.03 | 0.907 | 1.02 |
| LU99A | 0.742 | 0.75 | 0.582 | 0.386 | 0.312 | 0.745 | 0.814 | 0.839 | 0.894 | 0.749 |
| NCI-H2347 | 0.848 | 1 | 0.693 | 0.765 | 0.486 | 0.434 | 0.549 | 0.564 | 0.482 | 0.631 |
| NCI-H2009 | 1.28 | 1.24 | 1.06 | 1.2 | 0.625 | 1.21 | 1.14 | 1.1 | 1.19 | 1.12 |
| HCC-15 | 1.02 | 1.01 | 0.936 | 0.548 | 0.446 | 0.657 | 0.734 | 0.697 | 0.721 | 0.669 |
| HCC-44 | – | – | – | – | – | 1 | 0.963 | 0.927 | 1.01 | 0.939 |
| COR-L23 | 1.2 | 0.982 | 0.948 | 0.369 | 0.34 | 0.893 | 1.01 | 0.877 | 0.833 | 0.928 |
| HCC-78 | 0.629 | 0.589 | 0.451 | 0.376 | 0.338 | – | 0.852 | 0.832 | 0.919 | 0.818 |
| NCI-H1299 | 1.09 | 1.1 | 1.11 | 0.982 | 1.06 | 1.02 | 0.991 | 0.974 | 1.02 | 1 |
| NCI-H727 | 0.906 | 0.882 | 0.762 | 0.4 | 0.425 | 0.501 | 0.461 | 0.471 | 0.428 | 0.483 |
| NCI-H2087 | 0.979 | 0.919 | 0.817 | 0.378 | 0.33 | 1.01 | 0.975 | 1.05 | 0.989 | 0.873 |
| BEN | 0.898 | 0.632 | 0.647 | 0.57 | 0.422 | 0.078 | 0.0642 | 0.0775 | 0.0686 | 0.0829 |
| LCLC-103H | 1.05 | 0.763 | 0.654 | 0.517 | 0.303 | – | – | – | – | – |
